Drawing on the Kinase Knowledgebase extract (Sharma et al. 2016), this text covers IC50 and MST for 36 molecules.

In brackets after ≈: the same amount, converted by molar mass. Several values for one entry are separate records, joined by “and”; a condition that tells them apart may be missing. Identical values can stand only once. A value given as a limit tells only on which side of the number the result lay.

Usually IC50 stands for the concentration that gives 50% inhibition.

The target of one assay is CDK2 (UniProt P24941). Briefly: Enzyme Assay.
For a further assay, the target named is CDK2 (human) (UniProt P24941). Briefly: Cell-Based Assay.
Another assay has as its system CDK2 (murine). Briefly: Animal Model. The note with it: l1210.
Another assay deals with CDK2 (rat). The assay can be described thus: Cell-Based Assay. To be noted: rasmc.
A further assay relates to CDK2 (mouse). The assay can be described thus: Cell-Based Assay. The note with it: p388.

On CDK2, `FC(F)(F)n1cnc2c(NCc3ccc(Cl)cc3)nc(Cl)nc21` registered an IC50 of 1 µg/mL (≈ 2.76 µM).
Molecule `CC(C)n1cnc2c(NCc3ccc(F)cc3)nc(NC[C@@H]3CCCO3)nc21` showed an IC50 on CDK2 of 0.63 µg/mL (≈ 1.64 µM).
As for `CC(C)n1cnc2c(NCc3ccc(Cl)cc3)nc(NCCNCCO)nc21`, at CDK2, the IC50 is 2.02 µg/mL (≈ 5 µM).
For `CC(C)n1cnc2c(NCc3ccc(Cl)cc3)nc(NCCN)nc21`, the IC50 against CDK2 (human) (mrc 5) is 1 µg/mL (≈ 2.78 µM); on CDK2 it was 0.35 µg/mL (≈ 0.973 µM).
As to `COc1ccc(CNc2nc(N(CCO)CCO)nc3c2ncn3CCO)cc1`, the IC50 on CDK2 came to 0.5 µg/mL (≈ 1.24 µM).
The molecule `CC(C)n1cnc2c(NCc3ccc(Cl)cc3)nc(NCCCN)nc21` gave an IC50 at CDK2 of 1 µg/mL (≈ 2.67 µM).
Take `COc1cccc(CNc2nc(N(CCO)CCO)nc3c2ncn3C(C)C)c1`: the IC50 against CDK2 worked out at 0.5 µg/mL (≈ 1.25 µM).
On CDK2, `Cn1cnc2c(OCc3ccc(Cl)cc3)nc(Cl)nc21` came in with an IC50 of 60 µg/mL (≈ 194 µM).
Take `CC(C)[C@H](CO)Nc1nc(NCc2ccc(Cl)cc2)c2ncn(C(C)C)c2n1`: the IC50 at CDK2 is 0.19 µg/mL (≈ 0.472 µM).
The same measure, in the same setting: the value for `COc1ccc(CNc2nc(N3CCCC(O)C3)nc3c2ncn3C(C)C)cc1` (stereo unspecified) was 1 µg/mL (≈ 2.52 µM).
`COc1cccc(CNc2nc(Cl)nc3c2ncn3C(C)C)c1` came in with an IC50 on CDK2 of 0.9 µg/mL (≈ 2.71 µM).
The same measure, in the same setting: to `Cc1ccc(-c2ccc(CNc3nc(N(CCO)CCO)nc4c3ncn4C(C)C)cc2)cc1` belongs 0.6 µg/mL (≈ 1.3 µM); to `CC(N)CNc1nc(NCc2ccc(F)cc2)c2ncn(C(C)C)c2n1` (stereo unspecified), 0.48 µg/mL (≈ 1.34 µM).
For `CC(C)n1cnc2c(NCc3ccc(-c4ccccc4)cc3)nc(N(CCO)CCO)nc21`, the IC50 against CDK2 (human) (caco-2) was 3.5 µg/mL (≈ 7.84 µM); at CDK2 (human) (mcf-7), 1 µg/mL (≈ 2.24 µM); on CDK2 (human) (ovcar), 2 µg/mL (≈ 4.48 µM); at CDK2 (human) (panc1), 1.3 µg/mL (≈ 2.91 µM); on CDK2, 0.6 µg/mL (≈ 1.34 µM).
The molecule `CC(C)n1cnc2c(NCc3ccc(Cl)cc3)nc(NC[C@@H](C)O)nc21` gave an IC50 against CDK2 of 0.43 µg/mL (≈ 1.15 µM).
On to `CC(C)n1cnc2c(NCc3ccc4c(c3)OCO4)nc(N(CCO)CCO)nc21`, for which the IC50 at CDK2 was 0.8 µg/mL (≈ 1.93 µM).
`COc1ccc(CNc2nc(Cl)nc3c2ncn3C)cc1` came in with an IC50 at CDK2 of 6 µg/mL (≈ 19.8 µM).
With `COc1ccc(CNc2nc(N(CC(C)O)CC(C)O)nc3c2ncn3C(C)C)cc1` (stereo unspecified), the IC50 on CDK2 was determined as 0.8 µg/mL (≈ 1.87 µM).
As to `Clc1ccc(COc2nc(Cl)nc3[nH]cnc23)cc1`, the IC50 against CDK2 is 60 µg/mL (≈ 203 µM).
In turn, `CC(C)n1cnc2c(NCc3ccc(F)cc3)nc(N(CCO)CCO)nc21` gave an IC50 on CDK2 of 0.15 µg/mL (≈ 0.386 µM).
The molecule `CC(=O)C(C)n1cnc2c(NCc3ccc(Cl)cc3)nc(N(CCO)CCO)nc21` (stereo unspecified) came in with an IC50 at CDK2 of 37 µg/mL (≈ 85.5 µM).
For the molecule `OCCNc1nc(NCc2ccccc2)nc2[nH]cnc12`, on CDK2, the IC50 was > 60 µg/mL.
The same measure, in the same setting: the value for `COc1ccc(CNc2nc(NCCO)nc3c2ncn3C(C)C)cc1` was 4 µg/mL (≈ 11.2 µM).
`COc1ccc(CNc2nc(N(CCO)CCO)nc3c2ncn3C)cc1` yielded an IC50 at CDK2 of 4 µg/mL (≈ 10.7 µM).
Consider `CC(C)n1cnc2c(NCc3ccc(Cl)cc3)nc(NC[C@@H](N)Cc3ccccc3)nc21`, for which, at CDK2, the IC50 is 1.07 µg/mL (≈ 2.38 µM).
`COc1ccc(CNc2nc(N(CCO)CCO)nc3c2ncn3C(C)C)cc1`: in the assay on CDK2 (murine), the MST is 13 d (3×) and 11 d and 12 d. The molecule also came in with an IC50 in the assay with CDK2 (rat) of 0.5 µg/mL (≈ 1.25 µM).
Consider `Cn1cnc2c(NCCO)nc(NCCO)nc21`, for which the half-inhibitory concentration (IC50) against CDK2 is > 60 µg/mL.
With `CC(N)CNc1nc(NCc2ccc(Cl)cc2)c2ncn(C(C)C)c2n1` (stereo unspecified), the figures for the IC50 against CDK2 (human) (mrc 5) and on CDK2 were 1 µg/mL (≈ 2.67 µM) and 0.05 µg/mL (≈ 0.134 µM), respectively.
Consider `CC(C)n1cnc2c(-c3cccc(OCc4ccccc4)c3)nc(N(CCO)CCO)nc21.CC(C)n1cnc2c(-c3cccc(Oc4ccccc4)c3)nc(N(CCO)CCO)nc21`, for which the IC50 against CDK2 (human) (mcf-7) was determined as 2 µg/mL; against CDK2 (human) (ovcar), 2 µg/mL; against CDK2 (human) (panc1), 2.5 µg/mL; in the assay with CDK2 (mouse), 1.5 µg/mL.
As for `CC(C)n1cnc2c(NCc3ccc(Cl)cc3)nc(NC[C@H](C)O)nc21`, the IC50 at CDK2 worked out at 0.38 µg/mL (≈ 1.01 µM).
Same read-out and setting: the value for `CC(C)n1cnc2c(NCc3ccc(Cl)cc3)nc(N[C@@H](C)CO)nc21` was 0.26 µg/mL (≈ 0.694 µM); that for `CC(C)[C@@H](CO)Nc1nc(NCc2ccc(F)cc2)c2ncn(C(C)C)c2n1` was 0.19 µg/mL (≈ 0.492 µM); that for `COc1ccc(CNc2nc(Cl)nc3c2ncn3C(F)(F)F)cc1` was > 60 µg/mL.
Take `COc1ccc(CNc2nc(Cl)nc3c2ncn3CC(C)C)cc1`: the IC50 against CDK2 worked out at 60 µg/mL (≈ 173 µM).
In turn, `CC(C)n1cnc2c(NCc3ccc(Cl)cc3)nc(N[C@H](C)CO)nc21` gave an IC50 at CDK2 of 0.35 µg/mL (≈ 0.934 µM).
On CDK2, `CC(C)n1cnc2c(NCc3ccc(-c4ccc(C(F)(F)F)cc4)cc3)nc(N(CCO)CCO)nc21` yielded an IC50 of 0.6 µg/mL (≈ 1.17 µM).
